Assays:
[1] = tested on: Parkinson's disease patients; assay: Pooled BIPARK-I and BIPARK-II: OFF-time and ON-time responder rates (≥1 hour) at endpoint; assay type: in vivo, human
Excerpt: The term “responders” is defined as patients achieving at least a 1-hour reduction in absolute off-time and/or the proportions of patients achieving at least a 1-hour increase in absolute on-time at the end of the double-blind phase of the trial.
(§1) The results of the two multi-centered double-blinded (DB) randomized placebo-controlled trials BIPARK-I (Ferreira et al., Lancet Neurol., 2016, 15, 154-65) and BIPARK-II (Lees et al., JAMA Neurol., 2017, 74, 197-206) were pooled together. Both clinical trials were performed to evaluate the efficacy and safety of opicapone in addition to levodopa-treated patients with moderate end-of-dose motor fluctuations. All patients had signs of end-of-dose deterioration for at least 4 weeks before screening, with a mean total awake off-time (state of akinesia or decreased mobility) of at least 1.5 hours, excluding morning akinesia. Eligible patients were randomized at baseline to the double-blind phase using a computer-generated scheme (administered by Cenduit, LLC) in a ratio of 1:1:1 to the addition of oral capsular opicapone, 25 mg/day or 50 mg/day, or matching placebo. The double-blind phase assessments occurred at 4-week intervals and the total duration of the double-blind phase could be 14 to 15 weeks. Full details of the inclusion and exclusion criteria and on study design are described in Ferreira et al., Lancet Neurol., 2016, 15, 154-65 and Lees et al., JAMA Neurol., 2017, 74, 197-206, which are incorporated herein by reference. Reductions in the daily dose (but not frequency) of levodopa were allowed between baseline and 3 to 4 weeks after baseline according to the clinical response but were not permitted thereafter.
(§2) Populations undergoing analysis included all randomized patients who took at least 1 dose of study medication and had at least 1 post-baseline off-time assessment. The post-hoc analysis described herein, analyzed Parkinson's disease patients with (“YES”) and without (“NO”) unpredictable on/off fluctuations.
(§3) The primary efficacy variable was the change from baseline in absolute off-time. As secondary end-point, the inventors analyzed the absolute on-time as well as the proportions of patients achieving at least a 1-hour reduction in absolute off-time and/or the proportions of patients achieving at least a 1-hour increase in absolute on-time at the end of the double-blind phase, defined as “responders”.
(§4) Changes from baseline were analysed using ANCOVA with treatment group included as fixed effect factor and the baseline scale score as a covariate. CMH-Test was used to assess differences between OPC dose levels and Placebo taking study into account as a factor.
(§5) Opicapone was synthesised as described in WO 2013/089573 and formulated into 25 or 50 mg capsules as described in WO 2010/114405. Study treatment (opicapone or matching placebo) was taken orally once daily in the evening at least 1 hour after the last daily dose of levodopa/DDCI (considered the bedtime dose).

[2] = tested on: Parkinson's disease patients; settings: BIPARK-I; patients with end-of-dose motor fluctuations; cited from earlier work
[3] = tested on: Parkinson's disease patients; assay: Pooled BIPARK-I and BIPARK-II: treatment-emergent adverse events in the safety set; assay type: in vivo, human
Excerpt: The term “treatment-emergent adverse events” is defined as any event not present before exposure to the study drug or any event already present that worsens in either intensity or frequency after first intake of study drug until 2 weeks after last intake of the study drug.
as §1, §5

[4] = tested on: Parkinson's disease patients; assay: Pooled BIPARK-I and BIPARK-II post-hoc analysis: change from baseline in absolute off-time; assay type: in vivo, human; settings: after 14-15 weeks
Excerpt: The term “absolute off-time” is the combined total daily of 30-minute periods spent in an “off” state. Conversely, the term “absolute on-time” is the combined total daily of 30-minute periods spent in an “on” state. Periods where the patient is asleep are excluded from either group.
The term “unpredictable motor fluctuations”, also known as “unpredictable on/off fluctuations” or “on/off phenomenon”, relates to the unpredictable re-emergence or worsening of symptoms at any time, such as severe troublesome dyskinesias, severe/unpredictable end-of-dose motor fluctuations, painful “off” dystonia and morning akinesia (Fabbri M. et al., Mov. Disord., 2018, 33, 1528-1539). Unpredictable motor fluctuations are unrelated to the timing of the next dose and may occur at any time during the day. […] Within the clinical trials analysed, unpredictable on/off fluctuations were defined as present if clinicians scored “NO” at the UPDRS item 36 (“Are “off” periods predictable?”), or “YES” in at least one of the following UPDRS items: 37 (“Are “off” periods unpredictable?”) and 38 (“Do “off” periods come on suddenly, within a few seconds?”).
as §1, §2, §3, §4, §5

[5] = 25 mg, NO: without unpredictable motor fluctuations
[6] = 25 mg, YES: with unpredictable motor fluctuations
[7] = 50 mg, NO: without unpredictable motor fluctuations
[8] = 50 mg, YES: with unpredictable motor fluctuations
[9] = 25 mg, NO: without unpredictable motor fluctuations, N = 143
[10] = 25 mg, YES: unpredictable motor fluctuations, N = 98
[11] = 50 mg, NO: without unpredictable motor fluctuations, N = 175
[12] = 50 mg, YES: unpredictable motor fluctuations, N = 87

Cc1c(Cl)c(C)[n+]([O-])c(Cl)c1-c1noc(-c2cc(O)c(O)c([N+](=O)[O-])c2)n1 [opicapone, 2,5-dichloro-3-[5-(3,4-dihydroxy-5-nitrophenyl)-1,2,4-oxadiazol-3-yl]-4,6-dimethylpyridine 1-oxide]
responders, off-time reduced (≥1 hour) [1, 5]: 58.7%
responders, on-time increased (≥1 hour) [1, 5]: 53.8%
responders, off-time reduced (≥1 hour) [1, 6]: 65.3%
responders, on-time increased (≥1 hour) [1, 6]: 69.4%
responders, off-time reduced (≥1 hour) [1, 7]: 68.6%
responders, on-time increased (≥1 hour) [1, 7]: 61.7%
responders, off-time reduced (≥1 hour) [1, 8]: 65.5%
responders, on-time increased (≥1 hour) [1, 8]: 66.7%
ability to reduce the time patients spent in the off state, vs. entacapone [2]: non-inferior
ability to reduce the time patients spent in the off state, vs. placebo combined with levodopa/DCCI [2]: superior
Incidence of Related Serious TEAEs [3, 9]: 0 number (%)
Incidence of Serious TEAEs [3, 9]: 2 (0.8) number (%)
Incidence of any TEAEs leading to Discontinuation [3, 9]: 7 (2.9) number (%)
TEAE: Anxiety [3, 9]: 0 number (%)
TEAE: Back pain [3, 9]: 4 (2.7) number (%)
TEAE: Constipation [3, 9]: 9 (6.2) number (%)
TEAE: Dizziness [3, 9]: 7 (4.8) number (%)
TEAE: Dry mouth [3, 9]: 8 (5.5) number (%)
TEAE: Dyskinesias [3, 9]: 14 (9.6) number (%)
TEAE: Falls [3, 9]: 3 (2.1) number (%)
TEAE: Headache [3, 9]: 6 (4.1) number (%)
TEAE: Hypertension [3, 9]: 6 (4.1) number (%)
TEAE: Insomnia [3, 9]: 11 (7.5) number (%)
TEAE: Nausea [3, 9]: 5 (3.4) number (%)
TEAE: Parkinson's disease [3, 9]: 4 (2.7) number (%)
TEAE: Somnolence [3, 9]: 3 (2.1) number (%)
TEAE: Urinary tract infection [3, 9]: 1 (0.7) number (%)
TEAE: ↑CPK (Blood creatine phosphokinase) [3, 9]: 4 (2.7) number (%)
Incidence of Serious TEAEs [3, 10]: 3 (1.2) number (%)
Incidence of any TEAEs leading to Discontinuation [3, 10]: 6 (2.5) number (%)
TEAE: Anxiety [3, 10]: 5 (5.1) number (%)
TEAE: Back pain [3, 10]: 1 (1.0) number (%)
TEAE: Constipation [3, 10]: 3 (3.1) number (%)
TEAE: Dizziness [3, 10]: 3 (3.1) number (%)
TEAE: Dry mouth [3, 10]: 8 (8.2) number (%)
TEAE: Dyskinesias [3, 10]: 25 (25.5) number (%)
TEAE: Falls [3, 10]: 8 (8.2) number (%)
TEAE: Headache [3, 10]: 2 (2.0) number (%)
TEAE: Hypertension [3, 10]: 4 ( 4.1) number (%)
TEAE: Insomnia [3, 10]: 6 (6.1) number (%)
TEAE: Nausea [3, 10]: 6 (6.1) number (%)
TEAE: Parkinson's disease [3, 10]: 7 (7.1) number (%)
TEAE: Somnolence [3, 10]: 7 (7.1) number (%)
TEAE: Urinary tract infection [3, 10]: 3 (3.1) number (%)
TEAE: Weight decrease [3, 10]: 0 number (%)
TEAE: ↑CPK (Blood creatine phosphokinase) [3, 10]: 3 (3.1) number (%)
Incidence of Serious TEAEs [3, 11]: 6 (2.3) number (%)
Incidence of any TEAEs leading to Discontinuation [3, 11]: 13 (4.9) number (%)
TEAE: Back pain [3, 11]: 1 (0.6) number (%)
TEAE: Constipation [3, 11]: 10 (5.6) number (%)
TEAE: Dizziness [3, 11]: 5 (2.8) number (%)
TEAE: Dry mouth [3, 11]: 5 (2.8) number (%)
TEAE: Dyskinesias [3, 11]: 35 (19.7) number (%)
TEAE: Falls [3, 11]: 3 (1.7) number (%)
TEAE: Headache [3, 11]: 7 (3.9) number (%)
TEAE: Hypertension [3, 11]: 7 (3.9) number (%)
TEAE: Insomnia [3, 11]: 6 (3.4) number (%)
TEAE: Nausea [3, 11]: 6 (3.4) number (%)
TEAE: Parkinson's disease [3, 11]: 5 (2.8) number (%)
TEAE: Somnolence [3, 11]: 3 (1.7) number (%)
TEAE: Urinary tract infection [3, 11]: 9 (5.1) number (%)
TEAE: Weight decrease [3, 11]: 9 (5.1) number (%)
TEAE: ↑CPK (Blood creatine phosphokinase) [3, 11]: 12 (6.7) number (%)
Incidence of Related Serious TEAEs [3, 12]: 1 (0.4) number (%)
Incidence of Serious TEAEs [3, 12]: 7 (2.6) number (%)
Incidence of any TEAEs leading to Discontinuation [3, 12]: 10 (3.8) number (%)
TEAE: Anxiety [3, 12]: 3 (3.4) number (%)
TEAE: Back pain [3, 12]: 2 (2.3) number (%)
TEAE: Constipation [3, 12]: 7 (8.0) number (%)
TEAE: Dizziness [3, 12]: 4 (4.6) number (%)
TEAE: Dry mouth [3, 12]: 3 (3.4) number (%)
TEAE: Dyskinesias [3, 12]: 19 (21.8) number (%)
TEAE: Falls [3, 12]: 5 (5.7) number (%)
TEAE: Headache [3, 12]: 3 (3.4) number (%)
TEAE: Hypertension [3, 12]: 1 (1.1) number (%)
TEAE: Insomnia [3, 12]: 3 (3.4) number (%)
TEAE: Nausea [3, 12]: 2 (2.3) number (%)
TEAE: Parkinson's disease [3, 12]: 1 (1.1) number (%)
TEAE: Somnolence [3, 12]: 2 (2.3) number (%)
TEAE: Urinary tract infection [3, 12]: 1 (1.1) number (%)
TEAE: Weight decrease [3, 12]: 1.1 (0.4) number (%)
TEAE: ↑CPK (Blood creatine phosphokinase) [3, 12]: 1 (1.1) number (%)
Safety in patients with unpredictable motor fluctuations ([3]; patients with unpredictable motor fluctuations): safe
Absolute off-time, change from baseline vs. placebo ([4]; 25 mg vs. placebo, NO: patients without unpredictable motor fluctuations): -20.4 min
Absolute off-time, change from baseline vs. placebo ([4]; 25 mg vs. placebo, Total patients): -40.7 min
Absolute off-time, change from baseline vs. placebo ([4]; 25 mg vs. placebo, YES: patients with unpredictable motor fluctuations): -61 min
Absolute off-time, change from baseline to end-point ([4]; 25 mg, NO: patients without unpredictable motor fluctuations): -73.6 min
Absolute off-time, change from baseline to end-point ([4]; 25 mg, Total patients): -98.7 min
Absolute off-time, change from baseline to end-point ([4]; 25 mg, YES: patients with unpredictable motor fluctuations): -123.8 min
Absolute off-time, change from baseline vs. placebo ([4]; 50 mg vs. placebo, Total patients): -64 min
Absolute off-time, change from baseline to end-point ([4]; 50 mg, NO: patients without unpredictable motor fluctuations): -104.7 min
Absolute off-time, change from baseline to end-point ([4]; 50 mg, Total patients): -122 min
Absolute off-time, change from baseline to end-point ([4]; 50 mg, YES: patients with unpredictable motor fluctuations): -139.3 min

Source: US20230398105A1, “TREATMENT REGIMENS FOR PARKINSON'S DISEASE” (BIAL - PORTELA & Cª, S.A., priority 2020, published 2023)
